Assay results: patent EP0908457B1, “3-(1,2-benzisothiazol- and isoxazol-5-Y1)-2,4(1H,3H)-pyrimidinedione or thione and 3-(1,2-benzisothiazol- and isoxazol-5-y1)-4(3H)-pyrimidinone or thione herbicidal agents” (BASF AKTIENGESELLSCHAFT, priority 1997, dated 1999)

Tests used:
[1] = tested on: Oryza sativa, (L.) Tebonnet; assay: Rice tolerance to post-transplant applications under flooded paddy conditions (Example 187), ORYSAT (Rice, Tebonnet); settings: for ORYSAT herbicidal effect rating / herbicidal effect rating ORYSAT / herbicidal effect rating, ORYSAT (rice tolerance): rated three to four weeks after treatment; for ORYSAT: herbicidal effect rating 0-9, three to four weeks after treatment
[2] = tested on: Cyperus serotinus, Rottb.; assay: Preemergence weed control under flooded paddy conditions, CYPSE (Flatsedge); format: in vivo; settings: for CYPSE herbicidal effect rating / herbicidal effect rating, CYPSE: rated three to four weeks after treatment; for CYPSE: herbicidal effect rating 0-9, three to four weeks after treatment; on herbicidal effect rating, CYPSE: meaning of each grade not given here
[3] = tested on: Monochoria vaginalis, Presl.; assay: Preemergence weed control under flooded paddy conditions, MOOVA (Monochoria); format: in vivo; settings: flooded paddy; for MOOVA herbicidal effect rating / herbicidal effect rating, MOOVA: rated three to four weeks after treatment; for MOOVA: herbicidal effect rating 0-9, three to four weeks after treatment; on herbicidal effect rating, MOOVA: meaning of each grade not given here
[4] = tested on: Echinochloa oryzoides (Ard.) Fritsch.; assay: Preemergence weed control under flooded paddy conditions, ECHORC (Watergrass (Calif.)); format: in vivo; settings: flooded paddy; for ECHORC herbicidal effect rating / herbicidal effect rating, ECHORC: rated three to four weeks after treatment; for ECHORC: herbicidal effect rating 0-9, three to four weeks after treatment; on herbicidal effect rating, ECHORC: meaning of each grade not given here
Sagittaria pygmaea, L. = assay: Preemergence weed control under flooded paddy conditions, SAGPY (Arrowhead (Pygmaea)); format: in vivo; settings: flooded paddy; for SAGPY herbicidal effect rating / herbicidal effect rating, SAGPY: rated three to four weeks after treatment; for SAGPY: herbicidal effect rating 0-9, three to four weeks after treatment; on herbicidal effect rating, SAGPY: meaning of each grade not given here
Cyperus iria = assay: Preemergence weed control under flooded paddy conditions, CYPIR (Rice Flatsedge); format: in vivo; settings: flooded paddy; for CYPIR herbicidal effect rating / herbicidal effect rating, CYPIR: rated three to four weeks after treatment; for CYPIR: herbicidal effect rating 0-9, three to four weeks after treatment; on herbicidal effect rating, CYPIR: meaning of each grade not given here
[5] = Rate 0.0320 kg/ha, preemergence
[6] = Rate 0.0620 kg/ha, preemergence
[7] = Rate 0.1250 kg/ha, preemergence
[8] = Rate 0.2500 kg/ha, preemergence
[9] = 0.0315 kg/ha, preemergence weeds
[10] = 0.0630 kg/ha, preemergence weeds
[11] = 0.0320 kg/ha, preemergence weeds
[12] = 0.0620 kg/ha, preemergence weeds
[13] = 0.2500 kg/ha, preemergence weeds
[14] = 0.1250 kg/ha, preemergence weeds
[15] = 0.0313 kg/ha, preemergence weeds
[16] = 0.0625 kg/ha, preemergence weeds

## Cn1c(C(F)(F)F)cc(=O)n(-c2ccc3snc(C=C(F)Br)c3c2)c1=O [Example 286, 2,4(1H,3H)-Pyrimidinedione, 3-[3-(2-bromo-2-fluorovinyl)-1,2-benzisothiazol-5-yl]-1-methyl-6-(trifluoromethyl)-]
[1]; Rate 0.0320 kg/ha
  ORYSAT herbicidal effect rating: 0.0
[1]; Rate 0.0620 kg/ha
  ORYSAT herbicidal effect rating: 0.0
[1]; Rate 0.1250 kg/ha
  ORYSAT herbicidal effect rating: 1.0
[1]; Rate 0.2500 kg/ha
  ORYSAT herbicidal effect rating: 2.0
[2]; [5]
  CYPSE herbicidal effect rating: 0.0
[2]; [6]
  CYPSE herbicidal effect rating: 0.0
[2]; [7]
  CYPSE herbicidal effect rating: 0.0
[2]; [8]
  CYPSE herbicidal effect rating: 0.0
[3]; [5]
  MOOVA herbicidal effect rating: 9.0
[3]; [6]
  MOOVA herbicidal effect rating: 9.0
[3]; [7]
  MOOVA herbicidal effect rating: 9.0
[3]; [8]
  MOOVA herbicidal effect rating: 9.0
[4]; [5]
  ECHORC herbicidal effect rating: 0.0
[4]; [6]
  ECHORC herbicidal effect rating: 0.0
[4]; [7]
  ECHORC herbicidal effect rating: 3.0
[4]; [8]
  ECHORC herbicidal effect rating: 8.0
Sagittaria pygmaea, L.; [5]
  SAGPY herbicidal effect rating: 0.0
Sagittaria pygmaea, L.; [6]
  SAGPY herbicidal effect rating: 0.0
Sagittaria pygmaea, L.; [7]
  SAGPY herbicidal effect rating: 0.0
Sagittaria pygmaea, L.; [8]
  SAGPY herbicidal effect rating: 0.0
Cyperus iria; [5]
  CYPIR herbicidal effect rating: 3.0
Cyperus iria; [6]
  CYPIR herbicidal effect rating: 7.0
Cyperus iria; [7]
  CYPIR herbicidal effect rating: 7.0
Cyperus iria; [8]
  CYPIR herbicidal effect rating: 9.0

## CC(C)C=C(C#N)c1nsc2ccc(-n3c(=O)cc(C(F)(F)F)n(C)c3=O)cc12 [Example 591, 1,2-Benzisothiazole-3-acetonitrile, 5-[3,6-dihydro-3-methyl-2,6-dioxo-4-(trifluoromethyl)-1(2H)-pyrimidinyl]-alpha-(2-methylpropylidene)-]
[1]; Rate 0.0320 kg/ha
  herbicidal effect rating ORYSAT: 2.0
[1]; Rate 0.0620 kg/ha
  herbicidal effect rating ORYSAT: 4.0
[1]; Rate 0.1250 kg/ha
  herbicidal effect rating ORYSAT: 4.0
[1]; Rate 0.2500 kg/ha
  herbicidal effect rating ORYSAT: 5.0
[2]; [5]
  herbicidal effect rating, CYPSE: 0.0
[2]; [7]
  herbicidal effect rating, CYPSE: 0.0
[3]; [5]
  herbicidal effect rating, MOOVA: 7.0
[3]; [6]
  herbicidal effect rating, MOOVA: 9.0
[3]; [7]
  herbicidal effect rating, MOOVA: 9.0
[3]; [8]
  herbicidal effect rating, MOOVA: 9.0
[4]; [5]
  herbicidal effect rating, ECHORC: 3.0
[4]; [6]
  herbicidal effect rating, ECHORC: 3.0
[4]; [7]
  herbicidal effect rating, ECHORC: 7.0
[4]; [8]
  herbicidal effect rating, ECHORC: 9.0
Sagittaria pygmaea, L.; [5]
  herbicidal effect rating, SAGPY: 0.0
Sagittaria pygmaea, L.; [6]
  herbicidal effect rating, SAGPY: 3.0
Sagittaria pygmaea, L.; [7]
  herbicidal effect rating, SAGPY: 7.0
Sagittaria pygmaea, L.; [8]
  herbicidal effect rating, SAGPY: 7.0
Cyperus iria; [5]
  herbicidal effect rating, CYPIR: 3.0
Cyperus iria; [6]
  herbicidal effect rating, CYPIR: 4.0
Cyperus iria; [7]
  herbicidal effect rating, CYPIR: 7.0
Cyperus iria; [8]
  herbicidal effect rating, CYPIR: 7.0

## C=CC(C)OC(=O)COc1ccc(C)cc1-c1nsc2ccc(-n3c(=O)cc(C(F)(F)F)n(C)c3=O)cc12 (stereo not drawn) [Example 186, 1-Methylallyl {{2-{5-[3,6-dihydro-3-methyl-2,6-dioxo-4-(trifluoromethyl)-1(2H)-pyrimidinyl]-1,2-benzisothiazol-3-yl}-p-tolyl}oxy}acetate]
[1]; 0.0315 kg/ha
  herbicidal effect rating, ORYSAT (rice tolerance): 9.0
[1]; 0.0630 kg/ha
  herbicidal effect rating, ORYSAT (rice tolerance): 9.0
[2]; [9]
  herbicidal effect rating, CYPSE: 9.0
[2]; [10]
  herbicidal effect rating, CYPSE: 9.0
[3]; [9]
  herbicidal effect rating, MOOVA: 9.0
[3]; [10]
  herbicidal effect rating, MOOVA: 9.0
[4]; [9]
  herbicidal effect rating, ECHORC: 9.0
[4]; [10]
  herbicidal effect rating, ECHORC: 9.0
Sagittaria pygmaea, L.; [9]
  herbicidal effect rating, SAGPY: 9.0
Sagittaria pygmaea, L.; [10]
  herbicidal effect rating, SAGPY: 9.0
Cyperus iria; [9]
  herbicidal effect rating, CYPIR: 9.0
Cyperus iria; [10]
  herbicidal effect rating, CYPIR: 9.0

## COc1cc(C(Br)Br)ccc1-c1nsc2ccc(-n3c(=O)cc(C(F)(F)F)n(C)c3=O)cc12 [Example 447, 2,4(1H,3H)-Pyrimidinedione, 3-[3-(alpha,alpha-dibromo-2-methoxy-p-tolyl)-1,2-benzisothiazol-5-yl]-1-methyl-6-(trifluoromethyl)-]
[1]; 0.0320 kg/ha
  ORYSAT: 4.0
[1]; 0.0620 kg/ha
  ORYSAT: 4.0
[1]; 0.1250 kg/ha
  ORYSAT: 5.0
[1]; 0.2500 kg/ha
  ORYSAT: 7.0
[2]; [11]
  CYPSE: 0.0
[2]; [12]
  CYPSE: 0.0
[2]; [13]
  CYPSE: 4.0
[3]; [11]
  MOOVA: 7.0
[3]; [12]
  MOOVA: 9.0
[3]; [14]
  MOOVA: 9.0
[3]; [13]
  MOOVA: 9.0
[4]; [11]
  ECHORC: 4.0
[4]; [12]
  ECHORC: 6.0
[4]; [14]
  ECHORC: 7.0
[4]; [13]
  ECHORC: 9.0
Sagittaria pygmaea, L.; [11]
  SAGPY: 4.0
Sagittaria pygmaea, L.; [12]
  SAGPY: 4.0
Sagittaria pygmaea, L.; [14]
  SAGPY: 5.0
Sagittaria pygmaea, L.; [13]
  SAGPY: 9.0
Cyperus iria; [11]
  CYPIR: 4.0
Cyperus iria; [12]
  CYPIR: 6.0
Cyperus iria; [14]
  CYPIR: 7.0
Cyperus iria; [13]
  CYPIR: 9.0

## CCN(CC)c1nsc2ccc(-n3c(=O)cc(C(F)(F)F)n(C)c3=O)cc12 [Example 118, 3-[3-(Diethylamino)-1,2-benzisothiazol-5-yl]-1-methyl-6-(trifluoromethyl)-2,4(1H,3H)-pyrimidinedione]
[1]; 0.0313 kg/ha
  herbicidal effect rating, ORYSAT (rice tolerance): 0.0
[1]; 0.0625 kg/ha
  herbicidal effect rating, ORYSAT (rice tolerance): 0.0
[1]; 0.1250 kg/ha
  herbicidal effect rating, ORYSAT (rice tolerance): 0.0
[1]; 0.2500 kg/ha
  herbicidal effect rating, ORYSAT (rice tolerance): 0.0
[2]; [15]
  herbicidal effect rating, CYPSE: 0.0
[2]; [16]
  herbicidal effect rating, CYPSE: 0.0
[2]; [14]
  herbicidal effect rating, CYPSE: 0.0
[2]; [13]
  herbicidal effect rating, CYPSE: 0.0
[3]; [15]
  herbicidal effect rating, MOOVA: 0.0
[3]; [16]
  herbicidal effect rating, MOOVA: 0.0
[3]; [14]
  herbicidal effect rating, MOOVA: 0.0
[3]; [13]
  herbicidal effect rating, MOOVA: 0.0
[4]; [15]
  herbicidal effect rating, ECHORC: 0.0
[4]; [16]
  herbicidal effect rating, ECHORC: 0.0
[4]; [14]
  herbicidal effect rating, ECHORC: 0.0
[4]; [13]
  herbicidal effect rating, ECHORC: 0.0
Sagittaria pygmaea, L.; [15]
  herbicidal effect rating, SAGPY: 0.0
Sagittaria pygmaea, L.; [16]
  herbicidal effect rating, SAGPY: 0.0
Sagittaria pygmaea, L.; [14]
  herbicidal effect rating, SAGPY: 0.0
Sagittaria pygmaea, L.; [13]
  herbicidal effect rating, SAGPY: 0.0
Cyperus iria; [15]
  herbicidal effect rating, CYPIR: 0.0
Cyperus iria; [16]
  herbicidal effect rating, CYPIR: 0.0
Cyperus iria; [14]
  herbicidal effect rating, CYPIR: 0.0
Cyperus iria; [13]
  herbicidal effect rating, CYPIR: 0.0

## Cn1c(C(F)(F)F)cc(=O)n(-c2ccc3snc(COCc4ccc(Cl)cc4Cl)c3c2)c1=O [Example 585, 2,4(1H,3H)-Pyrimidinedione, 3-{3-{[(2,4-dichlorobenzyl)oxy]methyl}-1,2-benzisothiazol-5-yl}-1-methyl-6-(trifluoromethyl)-]
[1]; Rate 0.0320 kg/ha
  herbicidal effect rating ORYSAT: 1.0
[1]; Rate 0.0620 kg/ha
  herbicidal effect rating ORYSAT: 1.5
[1]; Rate 0.1250 kg/ha
  herbicidal effect rating ORYSAT: 1.5
[1]; Rate 0.2500 kg/ha
  herbicidal effect rating ORYSAT: 1.5
[2]; [5]
  herbicidal effect rating, CYPSE: 0.0
[2]; [6]
  herbicidal effect rating, CYPSE: 0.0
[2]; [7]
  herbicidal effect rating, CYPSE: 0.0
[2]; [8]
  herbicidal effect rating, CYPSE: 3.0
[3]; [5]
  herbicidal effect rating, MOOVA: 3.5
[3]; [6]
  herbicidal effect rating, MOOVA: 3.5
[3]; [7]
  herbicidal effect rating, MOOVA: 4.5
[3]; [8]
  herbicidal effect rating, MOOVA: 9.0
[4]; [5]
  herbicidal effect rating, ECHORC: 5.0
[4]; [6]
  herbicidal effect rating, ECHORC: 8.5
[4]; [7]
  herbicidal effect rating, ECHORC: 8.5
[4]; [8]
  herbicidal effect rating, ECHORC: 9.0
Sagittaria pygmaea, L.; [5]
  herbicidal effect rating, SAGPY: 0.0
Sagittaria pygmaea, L.; [6]
  herbicidal effect rating, SAGPY: 1.5
Sagittaria pygmaea, L.; [7]
  herbicidal effect rating, SAGPY: 2.0
Sagittaria pygmaea, L.; [8]
  herbicidal effect rating, SAGPY: 2.5
Cyperus iria; [5]
  herbicidal effect rating, CYPIR: 2.5
Cyperus iria; [6]
  herbicidal effect rating, CYPIR: 8.5
Cyperus iria; [7]
  herbicidal effect rating, CYPIR: 9.0
Cyperus iria; [8]
  herbicidal effect rating, CYPIR: 9.0
